{"source": "patent US9795551B2", "about": "“Tetrapeptides and a method of use as an antioxidant” (L'OREAL, priority 2014, dated 2017)", "key": {"[1]": {"experiment": "HORAC hydroxyl radical absorbance capacity (USTM 190), in tubo", "experimental": "(§1) In the screening standard testing for oxygen radical absorbance capacity (ORAC) and hydroxyl radical absorbance capacity (HORAC) were conducted with the test polypeptides. Testing was conducted according to USTM 190 (HORAC) and USTM 192 (ORAC).\n(§2) The peptides were tested in tubo for their antioxidant properties and tested against reference/known antioxidants. The evaluation of the antioxidant properties were conducted by determination of the ORAC (USTM 192) and HORAC (USTM 190) test methods. The results are listed in Table I for the peptides of the invention and for the conventionally known antioxidants vitamin C and Carnosine."}, "[2]": {"experiment": "ORAC oxygen radical absorbance capacity (USTM 192), in tubo", "experimental": "as §1, §2"}}, "data": [{"compound": "NCCC(=O)N[C@@H](Cc1c[nH]cn1)C(=O)O", "note": "[Carnosine, β-alanyl-histidine, reference compound]", "values": [{"measurement": "HORAC/hydroxyl", "setting": "[1]", "value": 2099, "unit": "μmol GAE/g"}, {"measurement": "ORAC/peroxyl", "setting": "[2]", "value": 354, "unit": "μmol GAE/g"}]}, {"compound": "O=C1O[C@H]([C@@H](O)CO)C(O)=C1O", "note": "[Vitamin C, reference compound]", "values": [{"measurement": "HORAC/hydroxyl", "setting": "[1]", "value": 0, "unit": "μmol GAE/g"}, {"measurement": "ORAC/peroxyl", "setting": "[2]", "value": 4456, "unit": "μmol GAE/g"}]}, {"compound": "Ac-wRyR-NH2 [RED27]", "values": [{"measurement": "HORAC/hydroxyl", "setting": "[1]", "value": 735, "unit": "μmol GAE/g"}, {"measurement": "ORAC/peroxyl", "setting": "[2]", "value": 5342, "unit": "μmol GAE/g"}]}, {"compound": "RwRyR-NH2 [RED26]", "values": [{"measurement": "HORAC/hydroxyl", "setting": "[1]", "value": "No capacity"}, {"measurement": "ORAC/peroxyl", "setting": "[2]", "value": 4461, "unit": "μmol GAE/g"}]}, {"compound": "RyR-NH2 [RED32]", "values": [{"measurement": "HORAC/hydroxyl", "setting": "[1]", "value": 230, "unit": "μmol GAE/g"}, {"measurement": "ORAC/peroxyl", "setting": "[2]", "value": 3385, "unit": "μmol GAE/g"}]}, {"compound": "WKYK-NH2 [RED25]", "values": [{"measurement": "HORAC/hydroxyl", "setting": "[1]", "value": 2476, "unit": "μmol GAE/g"}, {"measurement": "ORAC/peroxyl", "setting": "[2]", "value": 4168, "unit": "μmol GAE/g"}]}, {"compound": "WRYR [RED23]", "values": [{"measurement": "HORAC/hydroxyl", "setting": "[1]", "value": 2089, "unit": "μmol GAE/g"}, {"measurement": "ORAC/peroxyl", "setting": "[2]", "value": 4091, "unit": "μmol GAE/g"}]}, {"compound": "WRYR-NH2 [RED6]", "values": [{"measurement": "HORAC/hydroxyl", "setting": "[1]", "value": 1548, "unit": "μmol GAE/g"}, {"measurement": "ORAC/peroxyl", "setting": "[2]", "value": 4488, "unit": "μmol GAE/g"}]}, {"compound": "WRYr-NH2 [RED19]", "values": [{"measurement": "HORAC/hydroxyl", "setting": "[1]", "value": 1457, "unit": "μmol GAE/g"}, {"measurement": "ORAC/peroxyl", "setting": "[2]", "value": 4350, "unit": "μmol GAE/g"}]}, {"compound": "WRyR-NH2 [RED21]", "values": [{"measurement": "HORAC/hydroxyl", "setting": "[1]", "value": 2472, "unit": "μmol GAE/g"}, {"measurement": "ORAC/peroxyl", "setting": "[2]", "value": 4816, "unit": "μmol GAE/g"}]}, {"compound": "WrYR-NH2 [RED20]", "values": [{"measurement": "HORAC/hydroxyl", "setting": "[1]", "value": 1666, "unit": "μmol GAE/g"}, {"measurement": "ORAC/peroxyl", "setting": "[2]", "value": 4448, "unit": "μmol GAE/g"}]}, {"compound": "WrYr-NH2 [RED18]", "values": [{"measurement": "HORAC/hydroxyl", "setting": "[1]", "value": 2982, "unit": "μmol GAE/g"}, {"measurement": "ORAC/peroxyl", "setting": "[2]", "value": 4758, "unit": "μmol GAE/g"}]}, {"compound": "wRYR-NH2 [RED24]", "values": [{"measurement": "HORAC/hydroxyl", "setting": "[1]", "value": 2225, "unit": "μmol GAE/g"}, {"measurement": "ORAC/peroxyl", "setting": "[2]", "value": 4077, "unit": "μmol GAE/g"}]}, {"compound": "wRwR-NH2 [RED31]", "values": [{"measurement": "HORAC/hydroxyl", "setting": "[1]", "value": 1189, "unit": "μmol GAE/g"}, {"measurement": "ORAC/peroxyl", "setting": "[2]", "value": 4652, "unit": "μmol GAE/g"}]}, {"compound": "wRyR-NH2 [RED22]", "values": [{"measurement": "HORAC/hydroxyl", "setting": "[1]", "value": 1686, "unit": "μmol GAE/g"}, {"measurement": "ORAC/peroxyl", "setting": "[2]", "value": 5383, "unit": "μmol GAE/g"}]}, {"compound": "wRyRw-NH2 [RED29]", "values": [{"measurement": "HORAC/hydroxyl", "setting": "[1]", "value": "No capacity"}, {"measurement": "ORAC/peroxyl", "setting": "[2]", "value": 5512, "unit": "μmol GAE/g"}]}, {"compound": "wRyRy-NH2 [RED28]", "values": [{"measurement": "HORAC/hydroxyl", "setting": "[1]", "value": "No capacity"}, {"measurement": "ORAC/peroxyl", "setting": "[2]", "value": 5216, "unit": "μmol GAE/g"}]}]}
